The source of these data is article PMC11364543, “Molecular recognition of an odorant by the murine trace amine-associated receptor TAAR7f” (Nature Communications, 2024).

pEC50: −log10 of the molar value.

This assay has as its target T1, mTAAR7f (Mus musculus, UniProt Q5QD08).
T1 construct: gene Taar7f; full length; N-terminal signal peptide, twin-strep and SNAP-tag, C-terminal nanoluc; BRET partner NES-Venus-mini-Gs (reporter)
T1 sequence (Q5QD08 1-358): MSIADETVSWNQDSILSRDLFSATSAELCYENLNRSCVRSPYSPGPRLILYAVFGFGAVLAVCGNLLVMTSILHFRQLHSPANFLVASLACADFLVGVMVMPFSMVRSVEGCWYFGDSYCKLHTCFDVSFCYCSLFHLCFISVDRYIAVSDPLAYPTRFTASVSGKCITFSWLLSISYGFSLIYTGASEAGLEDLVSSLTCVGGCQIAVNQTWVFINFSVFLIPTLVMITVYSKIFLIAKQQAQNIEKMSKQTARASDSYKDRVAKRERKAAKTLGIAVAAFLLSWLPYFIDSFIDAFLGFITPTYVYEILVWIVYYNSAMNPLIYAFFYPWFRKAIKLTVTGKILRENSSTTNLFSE
Put plainly: BRET mini-Gs recruitment (nanoluc receptor, NES-Venus-mGs), concentration-response. The assay is classed as cell-based. The source says: BRET mini-Gs recruitment (nanoluc receptor, NES-Venus-mGs), concentration-response on mTAAR7f | BRET ratios measured for increasing concentrations of the agonist DMCHA for the wild-type mTAAR7f
(In BRET a luciferase serves as donor, and the signal depends on an acceptor being close.)

For `CN(C)C1CCCCC1` [N,N-dimethylcyclohexylamine], the pEC50 (usually the negative decadic logarithm of the EC50, by convention in mol/L) is 5.07.
